From patent US20230391760A1, “HETEROCYCLIC GLP-1 AGONISTS” (Gasherbrum Bio, Inc., priority 2020, published 2023) come the findings set out here.

pEC50: −log10 of the molar value.

Sequence of GLP-1 Receptor (P43220 24-463, species assumed): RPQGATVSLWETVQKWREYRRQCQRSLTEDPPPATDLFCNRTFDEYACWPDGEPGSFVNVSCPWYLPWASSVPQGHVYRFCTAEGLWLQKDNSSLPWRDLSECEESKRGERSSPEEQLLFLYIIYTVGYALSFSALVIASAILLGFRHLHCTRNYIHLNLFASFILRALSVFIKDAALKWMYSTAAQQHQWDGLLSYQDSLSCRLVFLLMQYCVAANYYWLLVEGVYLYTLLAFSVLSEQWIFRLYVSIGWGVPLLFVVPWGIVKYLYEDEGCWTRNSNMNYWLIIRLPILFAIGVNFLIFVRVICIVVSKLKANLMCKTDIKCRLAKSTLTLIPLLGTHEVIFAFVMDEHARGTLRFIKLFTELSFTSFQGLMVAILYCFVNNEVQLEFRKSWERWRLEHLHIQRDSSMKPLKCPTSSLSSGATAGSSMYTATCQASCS

The target of this assay is GLP-1 Receptor (Homo sapiens, UniProt P43220). The experiment in a line: GLP-1R agonist cAMP stimulation assay (HEK293/GLP1R/CRE-LUC cells, cAMP dynamic 2 Kit). The assay is classed as cell-based. Conditions: HEK293/CRE-Luc cell line stably expressing the GLP-1 Receptor, 30 min at 37° C. An outline of the steps:
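HEK293 cells stably expressing human GLP-1R with CRE-luciferase, 1000 cells/well in DPBS with 0.5 mM IBMX and 0.1% BSA, treated with compound in 1/2-log serial dilution for 30 min at 37 °C. cAMP then detected by HTRF (cAMP-d2 plus anti-cAMP cryptate), 1 h at room temperature in the dark.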
`C[C@H]1CN(c2ncc(F)c(OCc3ccc(Cl)cc3F)n2)CCN1Cc1nc2cc(-c3nnc(C(F)(F)F)[nH]3)nnc2n1C[C@@H]1CCO1` [Compound 512a, 4-[(4-chloro-2-fluorophenyl)methoxy]-5-fluoro-2-[(3S)-3-methyl-4-[(7-{[(2S)-oxetan-2-yl]methyl}-3-[5-(trifluoromethyl)-4H-1,2,4-triazol-3-yl]-7H-imidazo[4,5-c]pyridazin-6-yl)methyl]piperazin-1-yl]pyrimidine] gave a pEC50 of 9.85.

As for `Fc1cc(Cl)ccc1COc1ccc(F)c(N2CCN(Cc3nc4cc(-c5nnc(C(F)(F)F)[nH]5)cnc4n3C[C@@H]3CCO3)CC2)n1` [Compound 513a, 1-{6-[(4-chloro-2-fluorophenyl)methoxy]-3-fluoropyridin-2-yl}-4-[(3-{[(2S)-oxetan-2-yl]methyl}-6-[5-(trifluoromethyl)-4H-1,2,4-triazol-3-yl]-3H-imidazo[4,5-b]pyridin-2-yl)methyl]piperazine], the pEC50 is 10.19.

Regarding `C[C@H]1CN(c2nc(OCc3ccc(Cl)cc3F)ccc2F)CCN1Cc1nc2cc(-c3nnc(C(F)(F)F)[nH]3)nnc2n1C[C@@H]1CCO1` [Compound 514a, (2S)-4-{6-[(4-chloro-2-fluorophenyl)methoxy]-3-fluoropyridin-2-yl}-2-methyl-1-[(7-{[(2S)-oxetan-2-yl]methyl}-3-[5-(trifluoromethyl)-4H-1,2,4-triazol-3-yl]-7H-imidazo[4,5-c]pyridazin-6-yl)methyl]piperazine], the negative-log EC50 (pEC50) is 10.15. The pEC50 values of the last two molecules are within 0.2 log units of each other.

In turn, `Fc1cc(Cl)ccc1COc1nc(C2CCN(Cc3nc4cc(-c5nnc(C(F)(F)F)[nH]5)ncc4n3C[C@@H]3CCO3)CC2F)ccc1F` (stereo partly drawn) [Compound 515a, 2-[(4-chloro-2-fluorophenyl)methoxy]-3-fluoro-6-[(3,4-trans)-3-fluoro-1-[(3-{[(2S)-oxetan-2-yl]methyl}-6-[5-(trifluoromethyl)-4H-1,2,4-triazol-3-yl]-3H-imidazo[4,5-c]pyridin-2-yl)methyl]piperidin-4-yl]pyridine] showed a pEC50 of 10.24.

With `Fc1cc(Cl)ccc1COc1nc(N2CCN(Cc3nc4cc(-c5nnc(C(F)(F)F)[nH]5)cnc4n3C[C@@H]3CCO3)CC2)ccc1F` [Compound 516a, 1-{6-[(4-chloro-2-fluorophenyl)methoxy]-5-fluoropyridin-2-yl}-4-[(3-{[(2S)-oxetan-2-yl]methyl}-6-[5-(trifluoromethyl)-4H-1,2,4-triazol-3-yl]-3H-imidazo[4,5-b]pyridin-2-yl)methyl]piperazine], the pEC50 was 10.74.

Turning to `N#Cc1ccc(COc2nc(C3CCN(Cc4nc5cc(-c6nnc(C(F)(F)F)[nH]6)nnc5n4C[C@@H]4CCO4)CC3)ccc2F)c(F)c1` [Compound 517a, 3-fluoro-4-{[(3-fluoro-6-{1-[(7-{[(2S)-oxetan-2-yl]methyl}-3-[5-(trifluoromethyl)-4H-1,2,4-triazol-3-yl]-7H-imidazo[4,5-c]pyridazin-6-yl)methyl]piperidin-4-yl}pyridin-2-yl)oxy]methyl}benzonitrile], the pEC50 was 10.37. This pEC50 lies 0.37 log units lower than the previous one.

The molecule `C[C@H]1CN(c2ccc(F)c(OCc3ccc(Cl)cc3F)c2)CCN1Cc1nc2cc(-c3nnc(C(F)(F)F)[nH]3)nnc2n1C[C@@H]1CCO1` [Compound 518a, (2S)-4-{3-[(4-chloro-2-fluorophenyl)methoxy]-4-fluorophenyl}-2-methyl-1-[(7-{[(2S)-oxetan-2-yl]methyl}-3-[5-(trifluoromethyl)-4H-1,2,4-triazol-3-yl]-7H-imidazo[4,5-c]pyridazin-6-yl)methyl]piperazine] had a pEC50 of 9.39.

Molecule `C[C@H]1CN(c2cccc(OCc3ccc(Cl)cc3F)n2)CCN1Cc1nc2cc(-c3nnc(C(F)(F)F)[nH]3)nnc2n1C[C@@H]1CCO1` [Compound 519a, (2S)-4-{6-[(4-chloro-2-fluorophenyl)methoxy]pyridin-2-yl}-2-methyl-1-[(7-{[(2S)-oxetan-2-yl]methyl}-3-[5-(trifluoromethyl)-4H-1,2,4-triazol-3-yl]-7H-imidazo[4,5-c]pyridazin-6-yl)methyl]piperazine] had a pEC50 of 10.40.

`Fc1cc(Cl)ccc1COc1cc(C2CCN(Cc3nc4cc(-c5nnc(C(F)(F)F)[nH]5)nnc4n3C[C@@H]3CCO3)CC2)ccc1F` [Compound 520a, 4-{3-[(4-chloro-2-fluorophenyl)methoxy]-4-fluorophenyl}-1-[(7-{[(2S)-oxetan-2-yl]methyl}-3-[5-(trifluoromethyl)-4H-1,2,4-triazol-3-yl]-7H-imidazo[4,5-c]pyridazin-6-yl)methyl]piperidine]: the pEC50 was 9.47.

The molecule `N#Cc1ccc(COc2cc(C3CCN(Cc4nc5cc(-c6nnc(C(F)(F)F)[nH]6)nnc5n4C[C@@H]4CCO4)CC3)ccc2F)c(F)c1` [Compound 521a, 3-fluoro-4-[(2-fluoro-5-{1-[(7-{[(2S)-oxetan-2-yl]methyl}-3-[5-(trifluoromethyl)-4H-1,2,4-triazol-3-yl]-7H-imidazo[4,5-c]pyridazin-6-yl)methyl]piperidin-4-yl}phenoxy)methyl]benzonitrile] showed a pEC50 of 9.29.

In the case of `C[C@H]1CN(c2ccc(F)c(OCc3ccc(C#N)cc3F)c2)CCN1Cc1nc2cc(-c3nnc(C(F)(F)F)[nH]3)nnc2n1C[C@@H]1CCO1` [Compound 522a, 3-fluoro-4-({2-fluoro-5-[(3S)-3-methyl-4-[(7-{[(2S)-oxetan-2-yl]methyl}-3-[5-(trifluoromethyl)-4H-1,2,4-triazol-3-yl]-7H-imidazo[4,5-c]pyridazin-6-yl)methyl]piperazin-1-yl]phenoxy}methyl)benzonitrile], the pEC50 was 9.34.

Molecule `Fc1cc(Cl)ccc1[C@H]1COc2cccc(C3CCN(Cc4nc5cc(-c6nnc(C(F)(F)F)[nH]6)nnc5n4C[C@@H]4CCO4)CC3)c2O1` [Compound 523a, 4-[(3S)-3-(4-chloro-2-fluorophenyl)-2,3-dihydro-1,4-benzodioxin-5-yl]-1-[(7-{[(2S)-oxetan-2-yl]methyl}-3-[5-(trifluoromethyl)-4H-1,2,4-triazol-3-yl]-7H-imidazo[4,5-c]pyridazin-6-yl)methyl]piperidine] gave a negative logarithm of the EC50 (pEC50) of 9.85. This pEC50 is 0.51 log units higher than that of the molecule before.

For `CC1(c2ccc(Cl)cn2)Oc2c(F)ccc(C3CCN(Cc4nc5cc(-c6nnc(C(F)(F)F)[nH]6)nnc5n4C[C@@H]4CCO4)CC3)c2O1` (stereo partly drawn) [Compound 524a, 5-chloro-2-[4-fluoro-2-methyl-7-{1-[(7-{[(2S)-oxetan-2-yl]methyl}-3-[5-(trifluoromethyl)-4H-1,2,4-triazol-3-yl]-7H-imidazo[4,5-c]pyridazin-6-yl)methyl]piperidin-4-yl}-2H-1,3-benzodioxol-2-yl]pyridine], the negative logarithm of the EC50 (pEC50) was 9.35. This pEC50 is 0.50 log units lower than that of the molecule before.

In turn, `C[C@H]1CN(c2nc(OCc3ccc(Cl)cc3F)ccc2F)CCN1Cc1nc2cc(-c3nnc(C(F)(F)F)[nH]3)ncc2n1C[C@@H]1CCO1` [Compound 525a, (2S)-4-{6-[(4-chloro-2-fluorophenyl)methoxy]-3-fluoropyridin-2-yl}-2-methyl-1-[(3-{[(2S)-oxetan-2-yl]methyl}-6-[5-(trifluoromethyl)-4H-1,2,4-triazol-3-yl]-3H-imidazo[4,5-c]pyridin-2-yl)methyl]piperazine] gave a negative-log EC50 (pEC50) of 10.59.

Regarding `N#Cc1nnc(-c2cc3nc(CN4CCC(c5cccc(OCc6ccc(Cl)cc6F)n5)CC4)n(C[C@@H]4CCO4)c3nn2)[nH]1` [Compound 526a, 5-{6-[(4-{6-[(4-chloro-2-fluorophenyl)methoxy]pyridin-2-yl}piperidin-1-yl)methyl]-7-{[(2S)-oxetan-2-yl]methyl}-7H-imidazo[4,5-c]pyridazin-3-yl}-4H-1,2,4-triazole-3-carbonitrile], the pEC50 was 10.77.

On to `C[C@H]1CN(c2ncc(F)c(OCc3ccc(Cl)cc3F)n2)CCN1Cc1nc2cc(-c3nnc(C(F)(F)F)[nH]3)cnc2n1C[C@@H]1CCO1` [Compound 527a, 4-[(4-chloro-2-fluorophenyl)methoxy]-5-fluoro-2-[(3S)-3-methyl-4-[(3-{[(2S)-oxetan-2-yl]methyl}-6-[5-(trifluoromethyl)-4H-1,2,4-triazol-3-yl]-3H-imidazo[4,5-b]pyridin-2-yl)methyl]piperazin-1-yl]pyrimidine], for which the pEC50 is 10.48. Compared with the last molecule, the pEC50 is 0.29 log units lower.

Usually pEC50 stands for the negative decadic logarithm of the EC50, by convention in mol/L.
